{"source": "patent US5594009A", "about": "“Fused pyrrolocarbazoles” (priority 1995, dated 1997)", "key": {"[1]": {"system": "indoleamine 2,3-dioxygenase (IDO) mRNA in THP-1 cells", "assay": "Inhibition of Induction By IFNγ of IDO mRNA", "type": "cell-based", "details": "Homo sapiens, IDO/GAPD mRNA ratio, 48 hours, read-out: IDO mRNA, Phosphorimager units, % of IFNγ-treated cells; for mrna remaining at 0.4 µM: compound 400 nM, IFNγ 400 units/ml", "method": "Fused pyrrolocarbazoles in accordance with our invention were tested for their ability to inhibit the induction by IFNγ of indoleamine 2,3-dioxygenase (IDO) mRNA in THP-1 cells, a human monocyte cell line.\nCell Culture: THP-1 cells (American Type Culture Collection, Rockville, Md.), a human monocytic leukemia cell line, were grown in RPMI 1640 medium (Mediatech, Herndon Valley, Va.) with 50 μM 2-mercaptoethanol and 10% fetal bovine serum. Cells were plated in T75 culture flasks, at 4×10^4 cells/cm^2 in 10 ml of medium, and were immediately treated with fused pyrrolocarbazoles at various concentrations. After 30 minutes recombinant (E. coli) IFNγ (Boehringer Mannheim Corporation,Indianapolis, Ind.) was added at 200-400 units/ml. Cells were incubated (37° C., 5% CO2 /95% Air) for 48 hours after treatment.\nRNA Isolation: Cells were pelleted by centrifugation (50× g, 7 min.) and medium was decanted. The cells were then washed two times with phosphate buffered saline pH 7.2 (PBS) (Mediatech, Herndon Valley, Va.). The washed cell pellet was lysed in 2 ml RNAzol B (Tel-Test, Inc., Friendswood, Tex.). RNA was isolated by chloroform extraction, precipitated, and washed following the \"RNAzol B isolation of RNA\" protocol accompanying this product. RNA was then solubilized in H2 O, and the concentration and purity were determined by reading the absorbance at A260 nm and A280 nm. Finally, the RNA was reprecipitated in ethanol, overnight at -20° C.\ncDNA Probes: Indoleamine 2,3-dioxygenase (IDO) cDNA was received from Sohan L. Gupta, Ph. D. (Hipple Cancer Research Center, Dayton, Ohio) (see Da., W. & Gupta, S. L. 168 Biochem. Biophys. Res. Commun. 1, 1990 and Hassanain, H. H. et al. 268 J. Biol. Chem. 5077, 1993). Glyceraldehyde-3-phosphate dehydrogenase (GAPD) cDNA was obtained through American Type Culture Collection (Rockville, Md.). These cDNA's were produced and purified using standard methods (see, Sambrook, Fritsch, Maniatis (1989) Molecular Cloning a Laboratory Manual/Second Edition 1, 1.21-1.24, 1.74-1.81, hereinafter in this Example, \"Maniatis a\") using Qiagen plasmid purification kits (Qiagen Inc., Chatsworth, Calif.). DNA concentration and purity were determined by absorbance at 280 nm and 260 nm. Specific DNA inserts were cut out by standard methods using restriction enzymes, and subsequently separated on agarose gels as in Maniatis (see, Sambrook, Fritsch, Maniatis (1989) Molecular Cloning a Laboratory Manual/Second Edition 1, 6.9-6.15, hereinafter in this Example, \"Maniatis b\"). cDNA probes were further purified for [^32 P] labeling using the Geneclean II DNA purification kit (BIO 101, Inc., La Jolla, Calif.). Probes were labeled with dCTP-α-^32 P (Amersham Corp., Arlington Heights, Ill.) by random primer labeling, using the Prime-a-GeneLabeling System (Promega Corp., Madison, Wis.).\nAnalysis and quantification of mRNA: IDO mRNA was detected by Northern blot analysis (see Maniatis a, p. 7.39-7.51) using standard methods. […] Quantification of IDO mRNA was carried out using a phosphorimager (Molecular Dynamics) in which density (i.e., amount of RNA) is expressed as relative phosphorimager units. […] GAPD mRNA measurement by phosphorimager quantification of Northern blots serves as a means to normalize for potential sample to sample differences in the amount of total RNA loaded on gels. […]"}, "[2]": {"system": "choline acetyltransferase (ChAT) activity in dissociated rat embryonic spinal cord culture", "assay": "Spinal Cord ChAT Activity Assay", "type": "cell-based", "details": "ChAT measured after 48 hours", "description": "In these assays, a fused pyrrolocarbazole was directly added to a dissociated spinal cord culture. […] The fused pyrrolocarbazole was added on the same day the dissociated spinal cord cell culture was initiated.\nMethods: Fetal rat spinal cord cells were dissociated, and experiments were performed as described (Smith et al., J. Cell Biology., 101:1608-1621 (1985); Glicksman et al., J. Neurochem. 61:210-221 (1993)). Dissociated cells were prepared from spinal cords dissected from rats (embryonic day 14-15) by standard trypsin dissociation techniques (Smith et al., J. Cell Biology 10:1608-1621 (1985)). Cells were plated at 6×10^5 cells/cm^2 on poly-1-ornithine coated plastic tissue culture wells in serum-free N2 medium supplemented with 0.05% bovine serum albumin (BSA) (Bottenstein et al., PNAS USA 514-517 (1979)). Cultures were incubated at 37° C. in a humidified atmosphere of 5% CO2 /95% air for 48 hours. ChAT activity was measured after 2 days it vitro using a modification of the Fonnum procedure (Fonnum, J. Neurochem. 24:407-409 (1975)) according to McManaman et al. and Glicksman et al. (McManaman et al., Developmental Biology 125:311-320 (1988); Glicksman et al., J. Neurochem. 61:210-221 (1993))."}, "protein kinase C": {"target": "protein kinase C", "assay": "PKC Activity Inhibition Assay", "type": "biochemical", "method": "Fused pyrrolocarbazoles inhibited the activity of protein kinase C (Table VI). The protein kinase C assay has been disclosed (Murakata et al., U.S. Pat. No. 4,923,986; Kikkawa et al., J. Biol. Chem. 257:13341-13348 (1982)). The assay was performed with several concentrations of fused pyrrolocarbazoles. The concentration at which protein kinase C was 50% inhibited (IC50) was determined."}, "[3]": {"system": "ChAT activity of basal forebrain cultures", "assay": "Basal Forebrain ChAT Activity Assay", "type": "cell-based, rat", "details": "Rattus norvegicus, 120 h, read-out: ChAT Activity (% of Control)", "in_short": "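Basal forebrain neurons from E17–18 rat embryos were Dispase-dissociated and plated at 5×10^4 cells/well on poly-ornithine/laminin. Cultures were kept in serum-free N2 medium with 0.05% BSA at 37° C. ChAT activity was measured 5 days after plating as the read-out for compound-induced increase.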"}, "AT-2 cells": {"system": "AT-2 cells", "assay": "Inhibition of Growth of Prostate Cancer Cell Line (MTS assay)", "type": "cell-based", "details": "72 h; 3 days, MTS; read-out: AT-2 cell growth IC50", "method": "AT-2 cells are a prostate cancer cell sub-line derived from the Dunning H tumor, graciously provided to us by Dr. John Isaacs (John Hopkins, M. D.). Unlike the Dunning H tumor cells, AT-2 cells can be grown in vitro.\nMethods: At-2 cells ([…]) were plated on tissue culture plastic in 96-well plates in the presence of RPMI-1640 medium containing 10% fetal calf serum, 250 nM dexamethasone, 2 mM glutamine, 1 mM sodium pyruvate, and penicillin/streptomycin antibiotics. The next day, compounds were added at 4 concentrations (10, 1, 0.1, 0.01 μM) to determine the approximate IC50 range. Cultures were assayed 3 days later for cell number using the MTS [(3-(4,5-dimethylthiazol-2-yl)-5-(3-carboxymethoxyphenyl)-2-(4-sulfophenyl)-2H-tetrazolium, inner salt)] assay. The MTS assay (purchased as a kit from Promega) measures the formation of an aqueous soluble formazan (detected by a plate reader at 490nm) produced by the bioreduction of a tetrazolium compound (MTS) in metabolically active cells via mitochondrial succinate dehydrogenase. After determining linearity of the substrate incubation time over a range of cell plating densities, the amount of product measured is directly proportional to cell number. MTS (333 ug/ml) and 25 μM phenazine methosulfate are mixed and added directly to the culture medium, and incubated at 37° C. in the 5% CO2 /95% air incubator for 0.5-4 h. Absorbance of the product at 490 nm is read on the BIO-TEK plate reader. Background values were obtained from wells containing culture medium with substrate solution, but no cells. In addition, values were also obtained from wells containing cells plated at day 0 and assayed on the day compound was added (day 1) in order to determine the number of cells at the time compound was added. After the initial dose-finding experiment was completed, subsequent experiments were set up so that there were 3 or more concentrations near the predicted IC50."}, "trkA tyrosine kinase": {"target": "trkA tyrosine kinase (Homo sapiens, UniProt P04629)", "sequence (P04629 33-796)": "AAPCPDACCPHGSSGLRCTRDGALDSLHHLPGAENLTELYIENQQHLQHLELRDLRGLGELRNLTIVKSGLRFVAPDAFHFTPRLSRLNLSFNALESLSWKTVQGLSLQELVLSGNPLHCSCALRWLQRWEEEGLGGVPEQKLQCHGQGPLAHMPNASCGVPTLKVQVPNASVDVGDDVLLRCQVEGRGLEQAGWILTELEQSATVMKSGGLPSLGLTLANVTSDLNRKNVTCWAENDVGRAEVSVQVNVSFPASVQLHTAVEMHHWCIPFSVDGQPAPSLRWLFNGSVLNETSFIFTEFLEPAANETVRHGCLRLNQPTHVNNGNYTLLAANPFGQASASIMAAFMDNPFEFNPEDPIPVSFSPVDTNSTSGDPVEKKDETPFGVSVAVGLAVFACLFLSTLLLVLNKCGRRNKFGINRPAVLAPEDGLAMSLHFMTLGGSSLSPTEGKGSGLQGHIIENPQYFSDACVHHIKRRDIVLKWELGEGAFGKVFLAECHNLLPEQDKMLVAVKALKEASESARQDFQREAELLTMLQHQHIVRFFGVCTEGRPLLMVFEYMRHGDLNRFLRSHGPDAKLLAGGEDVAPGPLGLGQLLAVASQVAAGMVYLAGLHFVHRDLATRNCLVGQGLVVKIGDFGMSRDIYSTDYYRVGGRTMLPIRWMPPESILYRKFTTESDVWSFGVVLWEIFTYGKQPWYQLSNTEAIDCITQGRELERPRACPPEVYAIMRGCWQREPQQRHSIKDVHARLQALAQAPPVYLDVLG", "assay": "trkA Tyrosine Kinase Activity Inhibition Assay (ELISA)", "type": "biochemical", "details": "16 μM ATP, 37° C., 15 min; read-out: INHIBITION OF trkA KINASE IC50", "description": "These compounds were then tested for the ability to inhibit substrate phosphorylation by the trkA tyrosine kinase.\nPlates were washed three times with TBST, followed by two washes with TBS (TBST sans Tween-20). Fused pyrrolocarbazoles were then added at various concentrations to a reaction mixture (50 mM HEPES, pH 7.4, 5 mM MnCl2, 5 mM MgCl2, 140 mM NaCl, 16 μM ATP, and 15 ng trkA in a total volume of 1001 μL.). As a negative control, 100 mM EDTA was included in the reaction solution. The plates were then incubated at 37° C. for 15 min. The detection antibody, monoclonal anti-phosphotyrosine antibody (UBI), was added at a dilution of 1:2000 in TBST, and incubated for 1 hour at 37° C. Plates were then washed three times with TBST, followed by a 1 hour incubation at 37° C. with alkaline phosphatase-labeled goat anti-mouse IgG (1:2000 in TBST (Bio-Rad)). After washing three times with TBST followed by two washes with TBS, a colored product was produced by using NADPH as substrate for alkaline phosphatase, and the coupled reactions of diaphorase and alcohol dehydrogenase (GIBCO-BRL ELISA amplification system). The colored product was read at 490 nm in a microplate reader (Biotek)."}, "[4]": {"system": "lumbar motoneurons of chick embryos", "assay": "Inhibition of Motoneuron Death In Ovo", "type": "in vivo", "details": "for Number of motoneurons mean ± SD / % of motoneurons rescued versus control: E6-E9; for Number of motoneurons mean ± SD: one side of spinal cord", "description": "The samples (50 ul) were applied to the vascularized chorioallantoic membrane through a window in the egg shell as previously described (Oppenheim et al., 1988). Embryos were sacrificed on E10 and spinal cords were removed, fixed in Carnoy's solution (10% acetic acid, 60% ethanol, 30% chloroform), embedded in paraffin, sectioned at 8 um, and stained with thionin as described previously (Oppenheim et al., 1988). Motoneurons (identified by morphology and position) were counted by an individual blind to the treatment conditions in every tenth section according to previously established criteria (Oppenheim et al., 1982, Oppenheim, 1986)."}, "chick DRG neurons": {"system": "chick DRG neurons", "assay": "DRG Neuron Survival Assay (calcein AM)", "type": "cell-based", "details": "Gallus gallus, DRG neuron, 48 hours, read-out: Neuronal Survival (% of Control)", "method": "Fused pyrrolocarbazoles promoted dorsal root ganglion (DRG) neuronal survival in cultures of chick DRG neurons. Cell survival was measured by uptake of calcein AM, an analog of the viable dye, fluorescein diacetate. Calcein is taken up by viable cells and cleaved intracellularly to fluorescent salts which are retained by intact membranes of viable cells. Microscopic counts of viable neurons correlate directly with relative fluorescence values obtained with the fluorimetric viability assay. This method thus provides a reliable and quantitive measurement of cell survival in the total cell population of a given culture (Bozyczko-Coyne et al., J. Neur. Meth. 50:205-216, 1993).\nMethods: Dorsal root ganglia were dissected from embryonic age day 9 chick embryos and dissociated cells prepared by subsequent Dispase (neutral protease, Collaborative Research) dissociation. Neurons were seeded at low density (3×10^4 cells/cm^2) into 96 well poly-L-ornithine and laminin coated plates. Cells were cultured for 48 hours in serum-free N2 medium (Bottenstein and Sato, 1979) at 37° C. in a humidified atmosphere, 5% CO2 /95% air. Cell survival was assessed at 48 hours using the viable fluorimetric assay described above."}}, "data": [{"smiles": "O=C1NCc2c3c(c4[nH]c5ccc(Br)cc5c4c21)Cc1ccccc1-3", "note": "[Compound I-11, 3-Bromo-6H, 7H, 12H, 13H -indeno[2,3-a]pyrrolo[3,4-carbazole-5(5H)one]", "values": [{"measurement": "mrna remaining at 0.4 µM", "setting": "[1]", "result": 49, "unit": "%"}, {"measurement": "Spinal Cord ChAT Activity, % of Control, untreated cultures", "setting": "[2]", "result": "188 % of Control"}, {"measurement": "IC50", "setting": "protein kinase C", "result": 0.45, "unit": "µM"}]}, {"smiles": "O=C1NCc2c1c1c(c3c2c2ccccc2n3CCO)Cc2ccccc2-1", "note": "[Compound I-29, 13-(2-Hydroxyethyl)-5H,6H,12H,13H-indeno[2,3-a]pyrrolo[3,4-c]carbazole-7(7H)one]", "values": [{"measurement": "activity at 0.1 µM", "setting": "[3]; 100 nM", "result": 140, "unit": "%"}, {"measurement": "activity at 0.25 µM", "setting": "[3]; 250 nM", "result": 189, "unit": "%"}, {"measurement": "activity at 0.5 µM", "setting": "[3]; 500 nM", "result": 194, "unit": "%"}, {"measurement": "activity at 1 µM", "setting": "[3]; 1000 nM", "result": 210, "unit": "%"}, {"measurement": "IC50", "setting": "AT-2 cells", "result": 3.26, "unit": "µM"}, {"measurement": "IC50", "setting": "trkA tyrosine kinase", "result": 0.0184, "unit": "µM"}, {"measurement": "mrna remaining at 0.2 µM", "setting": "[1]; compound 200 nM, IFNγ 200 units/ml", "result": 57, "unit": "%"}, {"measurement": "Spinal Cord ChAT Activity, % of Control, untreated cultures", "setting": "[2]", "result": "154 % of Control"}, {"measurement": "IC50", "setting": "protein kinase C", "result": 0.04, "unit": "µM"}]}, {"smiles": "O=C1NCc2c1c1c(c3[nH]c4ccc(C=Cc5ccccn5)cc4c23)Cc2ccccc2-1", "note": "[Compound I-32, 3-(2-Pyridinylethenyl)-5H,6H,12H,13H-indeno[2,3-a]pyrrolo[3,4-c]carbazole-7(7H)-one]", "values": [{"measurement": "IC50", "setting": "trkA tyrosine kinase", "result": "> 1", "unit": "µM"}, {"measurement": "mrna remaining at 0.4 µM", "setting": "[1]", "result": 70, "unit": "%"}, {"measurement": "Number of motoneurons mean ± SD", "setting": "[4]; 0.06 ug/egg daily", "result": "9657 ± 529"}, {"measurement": "% of motoneurons rescued versus control", "setting": "[4]; 0.3 ug/egg daily", "result": 8, "unit": "%"}, {"measurement": "Number of motoneurons mean ± SD", "setting": "[4]; 0.3 ug/egg daily", "result": "10215 ± 481"}, {"measurement": "% of motoneurons rescued versus control", "setting": "[4]; 0.6 ug/egg daily", "result": 31, "unit": "%"}, {"measurement": "Number of motoneurons mean ± SD", "setting": "[4]; 0.6 ug/egg daily", "result": "12357 ± 499"}, {"measurement": "increase in motoneuron survival in treated vs. control embryos, maximal effect", "setting": "[4]; 0.6 ug/egg, vehicle-treated control", "result": 31, "unit": "%"}, {"measurement": "% of motoneurons rescued versus control", "setting": "[4]; 1.2 ug/egg daily", "result": 24, "unit": "%"}, {"measurement": "Number of motoneurons mean ± SD", "setting": "[4]; 1.2 ug/egg daily", "result": "11743 ± 1497"}, {"measurement": "dose at which the maximal effect was achieved", "setting": "[4]; daily dose", "result": 0.6, "unit": "ug/egg"}, {"measurement": "viability at 0.1 µM", "setting": "chick DRG neurons; 100 nM", "result": 173, "unit": "%"}, {"measurement": "viability at 0.25 µM", "setting": "chick DRG neurons; 250 nM", "result": 164, "unit": "%"}, {"measurement": "viability at 0.5 µM", "setting": "chick DRG neurons; 500 nM", "result": 151, "unit": "%"}, {"measurement": "Spinal Cord ChAT Activity, % of Control, untreated cultures", "setting": "[2]", "result": "288 % of Control"}]}]}
